Source: patent US20240082341A1, “PEPTIDE FOR USE IN THE TREATMENT OR PREVENTION OF COVID-19” (Instytut Biochemii I Biofizyki Polskiej Akademii Nauk, priority 2020, published 2024)
Ends that are not written are not given here.

Molecular target: RBD domain of the S1 subunit of viral S glycoprotein (Severe acute respiratory syndrome coronavirus 2, UniProt P0DTC2)
Test: Binding of the peptides to the RBD domain of viral S glycoprotein (microscale thermophoresis, MST)
Set-up: species or system SARS-CoV-2
Settings: for binding strength compared with the native peptide (1d): RBD domain, comparison with peptide 1d

CSCC[C@H](N)C(=O)N[C@@H](Cc1ccc(O)cc1)C(=O)NCC(=O)N[C@@H](CC(N)=O)C(=O)N[C@@H](Cc1c[nH]cn1)C(=O)N[C@@H](CCC(=O)O)C(=O)O [Peptide J3.2, MYGNHE]
binding strength compared with the native peptide (1d): significantly higher

MYGNYE [Peptide J3.4, MYGNYE]
Kd (peptide-RBD complex, 25° C., cell unit μM, read-out: KD (nM) Tmeasurement 25° C.): > 10 µM

NC(=O)C[C@H](NC(=O)CNC(=O)[C@H](Cc1ccc(O)cc1)NC(=O)[C@@H](N)CC(=O)O)C(=O)N[C@@H](Cc1c[nH]cn1)C(=O)N[C@@H](CCC(=O)O)C(=O)O [Peptide 2d, DYGNHE]
binding strength compared with the native peptide (1d): significantly higher
